Laboratory results published in patent publication US6759207B2, “Fluorogenic or fluorescent reporter molecules and their applications for whole-cell fluorescence screening assays for caspases and other enzymes and the use thereof” (Cytovia, Inc., priority 1997, dated 2004).

Columns and labels:
[1] = biological target: T1, recombinant human caspase-3 (Homo sapiens, UniProt P42574); assay: Cleavage of caspase-3 substrates by recombinant human caspase-3; type: biochemical; settings: for Cleavage by Caspase-3: 10 μM or 50 μM substrate, 37° C.
T1 sequence (P42574 29-175 limits assumed): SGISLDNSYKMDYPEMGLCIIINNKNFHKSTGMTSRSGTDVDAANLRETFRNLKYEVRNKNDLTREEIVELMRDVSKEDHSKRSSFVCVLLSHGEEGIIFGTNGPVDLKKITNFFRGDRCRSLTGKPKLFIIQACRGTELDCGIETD
T1 sequence (P42574 176-277 limits assumed): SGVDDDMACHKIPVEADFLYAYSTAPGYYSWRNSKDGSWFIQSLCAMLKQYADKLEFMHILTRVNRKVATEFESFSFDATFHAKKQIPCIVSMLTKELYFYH
Description: (§1) The caspase substrates were assayed by recombinant caspase-3 and by lysates prepared from apoptotic HL-60 cells. The assays were carried out at 37° C. in 96-well plates in a 100 μL incubation containing 30 μL of caspase-3 preparation or cell lysate, 10 μM or 50 μM of the substrate, and caspase assay buffer (40 mM 1,4-piperazinebis(ethansulfonic acid) (PIPES, Aldrich Chemical Company) pH 7.2; 100 mM NaCl; 10% sucrose; 0.1% CHAPS; 1 mM EDTA; 10 mM DTT). At the end of the incubation period, the fluorescence was measured on a Bio-Tek FL500 fluorescence microplate reader using excitation and emission wavelengths of 485 and 530 nm, respectively. Two different controls were run: 1) an enzyme blank consisting of samples containing substrate, but without enzyme or cell lysate; 2) an inhibitor control, consisting of samples which contained the caspase inhibitor, Ac-DEVD-CHO (f.c., 10 μM).

[2] = test system: apoptotic HL-60 cell lysates; assay: Cleavage of caspase-3 substrates by apoptotic HL-60 cell lysates; type: biochemical; settings: 10 μM or 50 μM substrate, 37° C., vinblastine treated HL-60 cell lysates
Description: as §1

HL-60 cells = assay: Staining of apoptotic HL-60 cells by caspase-3 substrate (whole-cell assay, microscopy); type: cell-based; settings: 50 μM Ac-DEVD-CHO; substrate 50 μM N-Ac-DEVD-N′-octyloxycarbonyl-R110
Description: The ability of N-Ac-DEVD-N′-octyloxycarbonyl-R110 SEQ ID NO:5 to detect caspase activation in intact cells was tested using apoptotic HL-60 and Jurkat cells. These whole-cell assays were carried out in two stages: 1) induction of apoptosis; 2) incubation with the substrate. For HL-60 cells, apoptosis was induced by treatment with 10 μg/ml vinblastine for 4 hours. Control samples were treated with DMSO. For Jurkat cells, apoptosis was induced by treatment with 500 ng/ml agonistic antiFas antibody for 2 hours. Control samples were treated with PBS. Following apoptosis induction, the cells were incubated with 50 μM N-Ac-DEVD-N′-octyloxycarbonyl-R110 SEQ ID NO:5 in caspase assay buffer (40 mM PIPES, pH 7.4; 100 mM NaCl; 10% sucrose; 1 mM EDTA; 10 mM DTT). The cells were than transferred to a glass microslide and viewed by epifluorescent illumination on a Nikon inverted microscope.

recombinant CPP32 = biological target: T2, recombinant CPP32 (Homo sapiens, UniProt P42574); assay: Fluorometric enzyme assay, cleavage of substrate by recombinant CPP32; type: biochemical; settings: for CPP32 Vmax: 1-100 μM substrate, 37° C.; for efficiency as substrate for CPP32: summary of Table 4
T2 construct: made in house; host or cells: Sf9 insect cells, baculovirus vector
T2 sequence (P42574 29-175 limits assumed): T1 sequence (P42574 29-175 limits assumed)
T2 sequence (P42574 176-277 limits assumed): T1 sequence (P42574 176-277 limits assumed)
Description: (§2) The activities of N-(Z-VD)-N′-acetyl-Rhodamine 110, N-(Z-VAD)-N′-acetyl-Rhodamine 110, N-(Z-DEVD)-N′-acetyl-Rhodamine 110 SEQ ID NO:5, N-(Z-YVAD)-N-acetyl-Rhodamine 110 SEQ ID NO:2, (Z-VAD)2-Rhodamine 110 and (Z-YVAD)2-Rhodamine 110 SEQ ID NO:2 as synthetic substrates for recombinant CPP32 and ICE were measured in a fluorometric enzyme assay. […] See, Webb, N. R. et al., “Expression of proteins using recombinant Baculovirus,” Techniques 2:173-188 (1990). Cleavage of the synthetic substrates by the enzyme results in a fluorescent signal which is read in a spectrofluorometer or in a fluorometric microtiter plate reader. Using this assay, the Km and Vmax values were determined for each substrate with either CPP32 or ICE.
(§3) CPP32 and ICE dependent substrate cleavage was measured using the following buffer conditions: 100 mM HEPES pH 7.5, with 10% sucrose, 1% CHAPS, 5 mM glutathione, and 1-100 μM test substrate. Nonspecific enzyme cleavage was determined with the use of the specific CPP32 and ICE inhibitors consisted of an oligomer with the sequence Asp-Glu-Val-Asp or Tyr-Val-Ala-Asp, respectively, with an aldehyde group conjugated to the C-terminus. The assay for enzyme activity was typically carried out at 37° C. for 60 minutes.

recombinant ICE = biological target: T3, recombinant ICE (Homo sapiens, UniProt P29466); assay: Fluorometric enzyme assay, cleavage of substrate by recombinant ICE; type: biochemical; settings: for efficiency as substrate for ICE: summary of Table 4; for ICE Vmax / Km: 1-100 μM substrate, 37° C.; for Km: NA = no activity observed at 1-100 μM substrate, 3 h incubation
T3 construct: made in house; host or cells: Sf9 insect cells, baculovirus vector
T3 sequence (P29466 120-297 limits assumed): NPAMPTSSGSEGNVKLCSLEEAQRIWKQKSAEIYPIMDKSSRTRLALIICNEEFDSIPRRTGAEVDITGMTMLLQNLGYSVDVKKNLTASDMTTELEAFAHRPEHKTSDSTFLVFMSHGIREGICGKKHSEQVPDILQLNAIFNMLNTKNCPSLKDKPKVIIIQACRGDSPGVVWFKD
T3 sequence (P29466 317-404 limits assumed): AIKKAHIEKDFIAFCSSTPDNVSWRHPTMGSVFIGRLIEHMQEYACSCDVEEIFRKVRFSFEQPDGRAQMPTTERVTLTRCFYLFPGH
Description: as §2, §3

[3] = Fluorescence and stability of N-acetyl-Rhodamine 110 compared to Rhodamine 110 (fluorometric assay); type: physicochemical
Description: The activities of Rhodamine 110 and N-acetyl-Rhodamine 110 as fluorescent moieties for synthetic substrates were measured in a fluorometric assay. The fluorescent signal is read in a spectrofluorometer or in a fluorometric microtiter plate reader at excitation wavelength of 485 and emission 530. Using this assay, the relative fluorescent values were determined for the two fluorescent moieties.
Fluorescence was measured using the following buffer conditions: 100 mM HEPES pH 7.5, with 10% sucrose, 1% CHAPS, 5 mM glutathione, and 1-200 nM test compound. The assay for stability was typically carried out at 37° C. for 2 days.

[4] = listed as N-Z-EVD-N′-Ethoxycarbonyl-R110

SMILES | Cleavage by Caspase-3 [1] | Cleavage by Apoptotic Lysates [2] | efficiency as substrate for CPP32 (recombinant CPP32) | efficiency as substrate for ICE (recombinant ICE) | also measured
CCOC(=O)Nc1ccc2c(c1)Oc1cc(NC(=O)[C@H](CC(=O)O)NC(=O)[C@@H](NC(=O)[C@H](CCC(=O)O)NC(=O)[C@H](CC(=O)O)NC(=O)OCc3ccccc3)C(C)C)ccc1C21OC(=O)c2ccccc21 (stereo partly drawn) [N-Z-DEVD-N′-ethoxycarbonyl-R110, N-(Cbz-Asp-Glu-Val-Asp)-N′-ethoxycarbonyl-Rhodamine 110] | Good | Good | – | – | –
CC(=O)N[C@@H](CC(=O)O)C(=O)N[C@@H](CCC(=O)O)C(=O)N[C@H](C(=O)N[C@H](C=O)CC(=O)O)C(C)C [Ac-DEVD-CHO, reference compound] | – | – | – | – | fluorescent signal of vinblastine-treated HL-60 cells with inhibitor added during the assay stage (HL-60 cells): almost no fluorescent signal
CCOC(=O)Nc1ccc2c(c1)Oc1cc(NC(=O)[C@H](CC(=O)O)NC(=O)[C@@H](NC(=O)OCc3ccccc3)C(C)C)ccc1C21OC(=O)c2ccccc21 (stereo partly drawn) [N-Z-VD-N′-ethoxycarbonyl-R110, N-(Cbz-Val-Asp)-N′-Ethoxycarbonyl-Rhodamine 110] | the signal was low and Poor | Poor | – | – | amount of recombinant caspase-3 required for cleavage relative to tri- and tetrapeptide substrates ([1]; FIG. 2A): 50 fold
CCCCCCOC(=O)Nc1ccc2c(c1)Oc1cc(NC(=O)[C@H](CC(=O)O)NC(=O)[C@@H](NC(=O)[C@H](CCC(=O)O)NC(=O)[C@H](CC(=O)O)NC(C)=O)C(C)C)ccc1C21OC(=O)c2ccccc21 (stereo partly drawn) [N-Ac-DEVD-N′-hexyloxycarbonyl-R110, N-(Ac-Asp-Glu-Val-Asp)-N′-hexyloxycarbonyl-Rhodamine-110] | Good | Good | – | – | –
CC(=O)Nc1ccc2c(c1)Oc1cc(NC(=O)C(CC(=O)O)NC(=O)C(NC(=O)OCc3ccccc3)C(C)C)ccc1C21OC(=O)c2ccccc21 (centres unmarked) [N-(Z-VD)-N′-Ac-Rhodamine 110, N-(Z-Val-Asp)-N′-acetyl-Rhodamine 110] | – | – | efficient substrate | not for ICE | CPP32 Vmax (recombinant CPP32): 11 nmol/min
CCSC(=O)Nc1ccc2c(c1)Oc1cc(NC(=O)[C@H](CC(=O)O)NC(=O)[C@@H](NC(=O)[C@H](CCC(=O)O)NC(=O)[C@H](CC(=O)O)NC(C)=O)C(C)C)ccc1C21OC(=O)c2ccccc21 (stereo partly drawn) [N-Ac-DEVD-N′-(ethylthio)carbonyl-R110, N-(Ac-Asp-Glu-Val-Asp)-N′-(ethylthio)carbonyl-Rhodamine 110] | Good | Good | – | – | –
CC(=O)Nc1ccc2c(c1)Oc1cc(N)ccc1C21OC(=O)c2ccccc21 (centres unmarked) [N-acetyl Rhodamine 110, N-Acetyl-Rhodamine 110] | – | – | – | – | stability and efficiency as fluorescent indicator ([3]; 37° C. for 2 days): stable and efficient fluorescent indicator; ratio of fluorescent signal (Rhodamine 110/N-acetyl Rhodamine 110) ([3]; after two days incubation at 37° C.): 10.1; ratio of fluorescent signal (Rhodamine 110/N-acetyl Rhodamine 110) ([3]; time zero, excitation 485, emission 530, HEPES pH 7.5 buffer): 10.2
CC(=O)Nc1ccc2c(c1)Oc1cc(NC(=O)[C@H](CC(=O)O)NC(=O)[C@H](C)NC(=O)[C@@H](NC(=O)[C@H](Cc3ccc(O)cc3)NC(=O)OCc3ccccc3)C(C)C)ccc1C21OC(=O)c2ccccc21 (stereo partly drawn) [N-(Z-YVAD)-N′-Ac-Rhodamine 110, N-(Z-Tyr-Val-Ala-Asp)-N′-acetyl-Rhodamine 110] | – | – | not for CPP32 | efficient substrates | ICE Vmax (recombinant ICE): 96 nmol/min; Km (recombinant ICE): 32 µM
CCOC(=O)Nc1ccc2c(c1)Oc1cc(NC(=O)C(CC(=O)O)NC(=O)C(NC(=O)C(CCC(=O)O)NC(=O)OCc3ccccc3)C(C)C)ccc1C21OC(=O)c2ccccc21 (centres unmarked) [N-Z-EVD-N′-ethoxycarbonyl-R110] | Fair | Fair | – | – | Cleavage by Caspase-3 [1, 4]: cleaved efficiently; Cleavage by Apoptotic Lysates [2, 4]: cleaved efficiently
CC(C)[C@H](NC(=O)OCc1ccccc1)C(=O)N[C@@H](C)C(=O)N[C@@H](CC(=O)O)C(=O)Nc1ccc2c(c1)Oc1cc(NC(=O)[C@H](CC(=O)O)NC(=O)[C@H](C)NC(=O)[C@@H](NC(=O)OCc3ccccc3)C(C)C)ccc1C21OC(=O)c2ccccc21 [(Z-VAD)2-Rhodamine 110, (Z-Val-Ala-Asp)2-Rhodamine 110] | – | – | not for CPP32 | efficient substrates | ICE Vmax (recombinant ICE): 9 nmol/min; Km (recombinant ICE): 21 µM
CCOC(=O)Nc1ccc2c(c1)Oc1cc(NC(=O)[C@H](CC(=O)O)NC(=O)[C@@H](NC(=O)[C@H](CCC(=O)O)NC(=O)[C@H](CC(=O)O)NC(C)=O)C(C)C)ccc1C21OC(=O)c2ccccc21 (stereo partly drawn) [N-Ac-DEVD-N′-ethoxycarbonyl-R110, N-(Ac-Asp-Glu-Val-Asp)-N′-ethoxycarbonyl-Rhodamine 110] | Good | Good | – | – | –
CC(=O)Nc1ccc2c(c1)Oc1cc(NC(=O)[C@H](CC(=O)O)NC(=O)[C@@H](NC(=O)[C@H](CCC(=O)O)NC(=O)[C@H](CC(=O)O)NC(=O)OCc3ccccc3)C(C)C)ccc1C21OC(=O)c2ccccc21 (stereo partly drawn) [N-(Z-DEVD)-N′-Ac-Rhodamine 110, N-(Z-Asp-Glu-Val-Asp)-N′-acetyl-Rhodamine 110] | – | – | efficient substrate | efficient substrate | CPP32 Vmax (recombinant CPP32): 160 nmol/min; ICE Vmax (recombinant ICE): 9 nmol/min; Km (recombinant ICE): 12 µM
